A short description of series [1]: Cytotoxicity in HeLa cells (ATP content, ATPlite kit). The series is classed as cell-based. The settings on record: human, TOX HELA CC50. Here is the method: (§1) Black 384-well clear-bottom microtiter plates (Corning, Amsterdam, The Netherlands) were filled via acoustic drop ejection using the echo liquid handler (Labcyte, Sunnyvale, California). 200 nL of compound stock solutions (100% DMSO) were transferred to the assay plates. 9 serial 4-fold dilutions of compound were made, creating per quadrant the same compound concentration. The assay was initiated by adding 10 µL of culture medium to each well (RPMI medium without phenol red, 10% FBS-heat inactivated, 0.04% gentamycin (50 mg/mL). All addition steps are done by using a multidrop dispenser (Thermo Scientific, Erembodegem, Belgium). Next, rgRSV224 virus (MOI = 1) diluted in culture medium was added to the plates. rgRSV224 virus is an engineered virus that includes an additional GFP gene (Hallak LK, Spillmann D, Collins PL, Peeples ME. Glycosaminoglycan sulfation requirements for respiratory syncytial virus infection; Journal of virology (2000), 74(22), 10508-13) and was in-licensed from the NIH (Bethesda, MD, USA). Finally, 20 µL of a HeLa cell suspension (3,000 cells/well) were plated. Medium, virus- and mock-infected controls were included in each test. The wells contain […] DMSO per volume. Cells were incubated at 37° C. in a 5% CO2 atmosphere. Three days post-virus exposure, viral replication was quantified by measuring GFP expression in the cells by an in house developed MSM laser microscope (Tibotec, Beerse, Belgium). The EC50 was defined as the 50% inhibitory concentration for GFP expression. In parallel, compounds were incubated for three days in a set of white 384-well microtiter plates (Corning) and the cytotoxicity of compounds in HeLa cells was determined by measuring the ATP content of the cells using the ATPlite kit (Perkin Elmer, Zaventem, Belgium) according to the manufacturer’s instructions. The CC50 was defined as the 50% concentration for cytotoxicity.

A further series concerns rgRSV224 virus. The series is described as follows: Antiviral activity: rgRSV224 (GFP) replication in HeLa cells. The series is classed as cell-based, respiratory syncytial virus (RSV). Conditions: human respiratory syncytial virus, HeLa, 72 h, read-out: RSV HELA EC50, HeLa cells, rgRSV224 MOI = 1, GFP expression three days post-virus exposure; averaged data of several repeat experiments. Here is the method:
as §1

Data on 20 molecules can be found in patent publication US20230203004A1, “RSV INHIBITING 3-SUBSTITUTED QUINOLINE AND CINNOLINE DERIVATIVES” (Janssen Sciences Ireland Unlimited Company, priority 2020, published 2023).

In series [1], `COc1cc(C(=O)NC[C@](O)(c2cc(C(C)(C)O)c(F)c(-c3ccc(Cl)cc3)n2)C2CC2)cc2cc(C)cnc12` [compound 208, (-)-N-{2-[6-(4-chlorophenyl)-5-fluoro-4-(2-hydroxypropan-2-yl)pyridin-2-yl]-2-cyclopropyl-2-hydroxyethyl}-8-methoxy-3-methylquinoline-6-carboxamide] came in with a CC50 at 3 days of 14 µM. In addition, the EC50 in the series with rgRSV224 virus is 0.001 µM.
For `COc1cc(C(=O)NC[C@](O)(c2cc(C(C)(C)O)c(F)c(-c3ccc(F)c(F)c3)n2)C2CC2)cc2cc(C)cnc12` [compound 209, (-)-N-{2-Cyclopropyl-2-[6-(3,4-Difluorophenyl)-5-Fluoro-4-(2-Hydroxypropan-2-yl)Pyridin-2-yl]-2-Hydroxyethyl}-8-Methoxy-3-Methylquinoline-6-Carboxamide] the same measures were 25 µM and 0.00041 µM.
For `COc1cc(C(=O)NC[C@](O)(c2cc(C(C)(C)O)c(Cl)c(-c3ccc(F)cc3)n2)C(F)(F)F)cc2cc(C)c(F)nc12` [compound 210, (-)-N-{2-[5-Chloro-6-(4-Fluorophenyl)-4-(2-Hydroxypropan-2-yl)Pyridin-2-yl]-3,3,3-Trifluoro-2-Hydroxypropyl}-2-Fluoro-8-Methoxy-3-Methylquinoline-6-Carboxamide] the same measures were 23 µM and 0.0029 µM.
For `COc1cc(C(=O)NC[C@](O)(c2nc(-c3ccc(F)cc3)c(F)c(C(C)(C)O)c2F)C(F)(F)F)cc2cc(C)c(F)nc12` [compound 211, (-)-N-{2-[3,5-Difluoro-6-(4-Fluorophenyl)-4-(2-Hydroxypropan-2-yl)Pyridin-2-yl]-3,3,3-Trifluoro-2-Hydroxypropyl}-2-Fluoro-8-Methoxy-3-Methylquinoline-6-Carboxamide] the same measures were 29 µM and 0.0028 µM.
As to `COc1cc(C(=O)NC[C@](O)(c2nc(-c3ccc(F)cc3)c(Cl)c(C(C)(C)O)c2F)C(F)(F)F)cc2cc(C)c(F)nc12` [compound 212, (-)-N-{2-[5-Chloro-3-Fluoro-6-(4-Fluorophenyl)-4-(2-Hydroxypropan-2-yl)Pyridin-2-yl]-3,3,3-Trifluoro-2-Hydroxypropyl}-2-Fluoro-8-Methoxy-3-Methylquinoline-6-Carboxamide], the CC50 at 3 days in series [1] stood at 58 µM. In addition, the EC50 in the series on rgRSV224 virus was determined as 0.0071 µM.
Take `COc1cc(C(=O)NC[C@](O)(c2cc(C(C)(C)O)c(Cl)c(-c3ccc(F)cc3)n2)C2CC2)cc2cc(C)c(F)nc12` [compound 215]: the CC50 at 3 days in series [1] turned out to be 20 µM. Besides, the EC50 in the series with rgRSV224 virus worked out at 0.00087 µM.
On to `COc1cc(C(=O)NC[C@](O)(c2cc(C(C)(C)O)c(F)c(-c3ccc(F)cc3)n2)C2CC2)cc2cc(C)c(F)nc12` [compound 216, (-)-N-{2-Cyclopropyl-2-[5-Fluoro-6-(4-Fluorophenyl)-4-(2-Hydroxypropan-2-yl)Pyridin-2-yl]-2-Hydroxyethyl}-2-Fluoro-8-Methoxy-3-Methylquinoline-6-Carboxamide], for which the CC50 at 3 days in series [1] came out at 21 µM. The EC50 in the series with rgRSV224 virus was found to be 0.00062 µM.
For `COc1cc(C(=O)NC[C@](O)(c2cc(C(C)(C)O)c(F)c(-c3ccc(C(F)(F)F)cc3)n2)C2CC2)cc2cc(C)c(F)nc12` [compound 217, N-[(-)Cyclopropyl{5-Fluoro-4-(2-Hydroxypropanyl)-6-[4-(Trifluoromethyl)Phenyl]-Pyridinyl}Hydroxyethyl]Fluoro-8-Methoxy-3-Methylquinoline-6-Carboxamide] the same measures were 14 µM and 0.0013 µM.
For `COc1cc(C(=O)NC[C@](O)(c2cc(C(C)(C)O)c(F)c(-c3ccc(F)c(F)c3)n2)C2CC2)cc2cc(C)c(F)nc12` [compound 218, (-)-N-{2-Cyclopropyl-2-[6-(3,4-Difluorophenyl)-5-Fluoro-4-(2-Hydroxypropan-2-yl)Pyridin-2-yl]-2-Hydroxyethyl}-2-Fluoro-8-Methoxy-3-Methylquinoline-6-Carboxamide] the same measures were 16 µM and 0.0012 µM.
Taken in the same sequence, the figures for `Cc1cnc2c(OC3CC3)cc(C(=O)NC[C@](O)(c3cc(C(C)(C)O)c(Cl)c(-c4ccc(F)cc4)n3)C(F)(F)F)cc2c1` [compound 219, (-)-N-{2-[5-Chloro-6-(4-Fluorophenyl)-4-(2-Hydroxypropan-2-yl)Pyridin-2-yl]-3,3,3-Trifluoro-2-Hydroxypropyl}-8-(Cyclopropyloxy)-3-Methylquinoline-6-Carboxamide] were 27 µM and 0.005 µM.
Turning to `Cc1cnc2c(OC3CC3)cc(C(=O)NC[C@](O)(c3nc(-c4ccc(F)cc4)c(F)c(C(C)(C)O)c3F)C(F)(F)F)cc2c1` [compound 220, (-)(Cyclopropyloxy)-N-{2-[3,5-Difluoro-6-(4-Fluorophenyl)-4-(2-Hydroxypropan-2-yl)Pyridin-2-yl]-3,3,3-Trifluoro-2-Hydroxypropyl}-3-Methylquinoline-6-Carboxamide], it took 36 µM to reach half-maximal cytotoxicity in series [1] (CC50 at 3 days). Further, in the series on rgRSV224 virus, the EC50 was 0.0024 µM.
In the case of `Cc1cnc2c(OC3CC3)cc(C(=O)NC[C@](O)(c3nc(-c4ccc(F)cc4)c(Cl)c(C(C)(C)O)c3F)C(F)(F)F)cc2c1` [compound 221, (-)-N-{2-[5-Chloro-3-Fluoro-6-(4-Fluorophenyl)-4-(2-Hydroxypropan-2-yl)Pyridin-2-yl]-3,3,3-Trifluoro-2-Hydroxypropyl}-8-(Cyclopropyloxy)-3-Methylquinoline-6-Carboxamide], the CC50 at 3 days in series [1] was determined as 65 µM. Besides, the EC50 in the series on rgRSV224 virus stood at 0.0093 µM.
As for `Cc1cnc2c(OC3CC3)cc(C(=O)NC[C@](O)(c3cc(C(C)(C)O)c(Cl)c(-c4ccc(F)cc4)n3)C3CC3)cc2c1` [compound 222, (-)-A-{2-[5-Chloro-6-(4-Fluorophenyl)-4-(2-Hydroxypropan-2-yl)Pyridin-2-yl]-2-Cyclopropyl-2-Hydroxyethyl}-8-(Cyclopropyloxy)-3-Methylquinoline-6-Carboxamide], the CC50 at 3 days in series [1] was 27 µM. For the same molecule, the EC50 with rgRSV224 virus stood at 0.0015 µM.
Taken in the same sequence, the figures for `Cc1cnc2c(OC3CC3)cc(C(=O)NC[C@](O)(c3cc(C(C)(C)O)c(F)c(-c4ccc(F)cc4)n3)C3CC3)cc2c1` [compound 223, (-)-N-{2-Cyclopropyl-2-[5-Fluoro-6-(4-Fluorophenyl)-4-(2-Hydroxypropan-2-yl)Pyridin-2-yl]-2-Hydroxyethyl}-8-(Cyclopropyloxy)-3-Methylquinoline-6-Carboxamide] were 21 µM and 0.00063 µM.
For `Cc1cnc2c(OC3CC3)cc(C(=O)NC[C@](O)(c3cc(C(C)(C)O)c(F)c(-c4ccc(C(F)(F)F)cc4)n3)C3CC3)cc2c1` [compound 224] the same measures were 15 µM and 0.0017 µM.
Take `Cc1cnc2c(OC3CC3)cc(C(=O)NC[C@](O)(c3cc(C(C)(C)O)c(F)c(-c4ccc(F)c(F)c4)n3)C3CC3)cc2c1` [compound 225, (-)-N-{2-Cyclopropyl-2-[6-(3,4-Difluorophenyl)-5-Fluoro-4-(2-Hydroxypropan-2-yl)Pyridin-2-yl]-2-Hydroxyethyl}-8-(Cyclopropyloxy)-3-Methylquinoline-6-Carboxamide]: the midpoint of cytotoxicity in series [1], the CC50 at 3 days, lay at 15 µM. The EC50 with rgRSV224 virus was 0.00059 µM.
`COc1cc(C(=O)NC[C@](O)(c2cc(C(C)(C)O)c(Cl)c(-c3ccc(F)cc3)n2)C2CC2)cc2cc(C(F)F)cnc12` [compound 226, (-)-N-{2-[5-Chloro-6-(4-Fluorophenyl)-4-(2-Hydroxypropan-2-yl)Pyridin-2-yl]-2-Cyclopropyl-2-Hydroxyethyl}-3-(Difluoromethyl)-8-Methoxyquinoline-6-Carboxamide]: the CC50 at 3 days in series [1] amounted to 14 µM. In addition, in the series with rgRSV224 virus, the EC50 worked out at 0.0024 µM.
Taken in the same sequence, the figures for `COc1cc(C(=O)NC[C@](O)(c2cc(C(C)(C)O)c(F)c(-c3ccc(F)cc3)n2)C2CC2)cc2cc(C(F)F)cnc12` [compound 227, N-{(-)Cyclopropyl[5-Fluoro-6-(4-Fluorophenyl)-4-(2-Hydroxypropanyl)Pyridinyl]Hydroxyethyl}-3-(Difluoromethyl)-8-Methoxyquinoline-6-Carboxamide] were 15 µM and 0.0011 µM.
Taken in the same sequence, the figures for `COc1cc(C(=O)NC[C@](O)(c2nc(-c3ccc(F)cc3)c(F)c(C(C)(C)O)c2F)C(F)(F)F)cc2cc(C3CC3)cnc12` [compound 228, (-)Cyclopropyl-N-{2-[3,5-Difluoro-6-(4-Fluorophenyl)-4-(2-Hydroxypropan-2-yl)Pyridin-2-yl]-3,3,3-Trifluoro-2-Hydroxypropyl}-8-Methoxyquinoline-6-Carboxamide] were 10 µM and 0.013 µM.
For `COc1cc(C(=O)NC[C@](C)(O)c2cc(C(C)(C)O)c(Cl)c(-c3ccc(F)cc3)n2)cc2cc(C)nnc12` [compound 229, (-)-N-{2-[5-Chloro-6-(4-Fluorophenyl)-4-(2-Hydroxypropan-2-yl)Pyridin-2-yl]-2-Hydroxypropyl}-8-Methoxy-3-Methylcinnoline-6-Carboxamide] the same measures were 44 µM and 0.00081 µM.
